Laboratory results taken from paper PMC2853803 (ACS chemical biology, 2009).
Entries after “also recorded” stand apart in the source; their conditions may differ. Where two headings read alike, the source gives them in different places. Marks after values point to notes of the source that are not given here.

Columns and labels:
P-gp = P-gp (Homo sapiens, UniProt P08183); conditions: 50 µM botryllamide; for fold change in rhodamine fluorescence (P-gp-mediated transport): valspodar 3 µg/ml, P-gp-expressing HEK293; for effect on P-gp: result in words
MRP1 = MRP1 (Homo sapiens, UniProt P33527); type: cell-based; conditions: 50 µM botryllamide; for fold increase in cellular calcein fluorescence (MRP1-mediated transport): MK-571 50 µM, MRP1-expressing HEK293; for effect on MRP1: result in words
ABCG2 [1] = biological target: T1, ABCG2 (Homo sapiens, UniProt Q9UNQ0); experiment: Screening assay: pheophorbide a; type: cell-based
T1 sequence (Q9UNQ0 1-655): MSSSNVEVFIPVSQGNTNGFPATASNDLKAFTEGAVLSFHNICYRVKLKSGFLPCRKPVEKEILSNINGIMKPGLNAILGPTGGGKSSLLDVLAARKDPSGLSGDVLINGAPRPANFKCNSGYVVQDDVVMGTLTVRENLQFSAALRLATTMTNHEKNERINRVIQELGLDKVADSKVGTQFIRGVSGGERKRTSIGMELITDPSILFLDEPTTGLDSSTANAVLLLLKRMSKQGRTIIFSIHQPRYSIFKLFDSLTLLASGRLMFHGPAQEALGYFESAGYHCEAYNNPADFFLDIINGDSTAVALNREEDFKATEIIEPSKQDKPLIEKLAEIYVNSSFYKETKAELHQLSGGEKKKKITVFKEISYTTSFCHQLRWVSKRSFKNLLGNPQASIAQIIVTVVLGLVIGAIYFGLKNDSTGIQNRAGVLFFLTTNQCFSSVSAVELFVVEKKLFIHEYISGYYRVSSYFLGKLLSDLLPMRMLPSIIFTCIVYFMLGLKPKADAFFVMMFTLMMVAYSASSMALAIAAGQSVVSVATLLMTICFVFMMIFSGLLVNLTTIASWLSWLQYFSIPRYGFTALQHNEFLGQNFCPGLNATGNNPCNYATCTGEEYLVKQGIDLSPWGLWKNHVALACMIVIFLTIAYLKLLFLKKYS

[2] = tested on: NCI-H460/MX20 (ABCG2-overexpressing) cells
ABCG2 [3] = biological target: T1, ABCG2; type: cell-based; conditions: 10 µM compound; for activity in the BODIPY-prazosin flow cytometry assay: result in words
[4] = tested on: parental NCI-H460 (ABCG2-) and NCI-H460/MX20 (ABCG2+) cells; experiment: Cytotoxicity of botryllamides alone, 7 d; type: cell-based, human; conditions: 100 µM botryllamide, result in words
ABCG2 [5] = biological target: T1, ABCG2; conditions: 20 µM compound, MCF-7 FLV1000 membranes
NCI-H460 parental cells = experiment: Mitoxantrone cytotoxicity in parental cells; type: cell-based, human; conditions: 10 µM mitoxantrone, vs vehicle (data not shown)
[6] = Light-induced isomerization on exposure to sunlight; type: physicochemical; conditions: result in words

Sequence of P-gp (P08183 whole entry): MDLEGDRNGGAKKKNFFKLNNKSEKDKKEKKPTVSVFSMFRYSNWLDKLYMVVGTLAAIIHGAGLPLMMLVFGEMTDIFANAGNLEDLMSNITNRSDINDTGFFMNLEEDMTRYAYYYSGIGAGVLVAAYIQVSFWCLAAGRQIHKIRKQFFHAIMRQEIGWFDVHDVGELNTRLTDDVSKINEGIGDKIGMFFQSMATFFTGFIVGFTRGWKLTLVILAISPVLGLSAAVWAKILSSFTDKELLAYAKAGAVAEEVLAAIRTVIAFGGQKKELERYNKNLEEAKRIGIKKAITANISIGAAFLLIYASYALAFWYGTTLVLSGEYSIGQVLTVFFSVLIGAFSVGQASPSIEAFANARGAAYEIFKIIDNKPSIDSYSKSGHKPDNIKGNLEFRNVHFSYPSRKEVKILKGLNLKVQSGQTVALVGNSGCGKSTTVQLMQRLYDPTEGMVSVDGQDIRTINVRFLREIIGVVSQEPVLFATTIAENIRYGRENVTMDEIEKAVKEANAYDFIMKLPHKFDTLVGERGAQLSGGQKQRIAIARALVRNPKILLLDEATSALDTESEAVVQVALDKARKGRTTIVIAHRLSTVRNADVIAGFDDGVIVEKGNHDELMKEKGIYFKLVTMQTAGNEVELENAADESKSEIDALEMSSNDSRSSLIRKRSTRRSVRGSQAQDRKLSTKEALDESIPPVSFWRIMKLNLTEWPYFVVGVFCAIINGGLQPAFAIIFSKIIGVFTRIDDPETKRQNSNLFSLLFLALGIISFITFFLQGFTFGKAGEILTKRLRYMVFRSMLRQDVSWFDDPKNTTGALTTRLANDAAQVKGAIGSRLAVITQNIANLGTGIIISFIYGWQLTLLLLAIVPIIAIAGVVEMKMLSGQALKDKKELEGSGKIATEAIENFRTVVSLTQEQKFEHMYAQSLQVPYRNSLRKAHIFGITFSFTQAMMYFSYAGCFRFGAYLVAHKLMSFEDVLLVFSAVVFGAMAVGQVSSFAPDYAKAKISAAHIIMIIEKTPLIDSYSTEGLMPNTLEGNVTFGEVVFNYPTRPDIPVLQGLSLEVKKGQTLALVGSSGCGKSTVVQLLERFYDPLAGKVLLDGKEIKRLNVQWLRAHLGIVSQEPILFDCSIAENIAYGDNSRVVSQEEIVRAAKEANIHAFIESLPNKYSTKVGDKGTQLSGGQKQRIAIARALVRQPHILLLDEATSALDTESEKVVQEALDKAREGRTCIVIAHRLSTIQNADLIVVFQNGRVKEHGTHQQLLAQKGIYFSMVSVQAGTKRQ
Sequence of MRP1 (P33527 whole entry): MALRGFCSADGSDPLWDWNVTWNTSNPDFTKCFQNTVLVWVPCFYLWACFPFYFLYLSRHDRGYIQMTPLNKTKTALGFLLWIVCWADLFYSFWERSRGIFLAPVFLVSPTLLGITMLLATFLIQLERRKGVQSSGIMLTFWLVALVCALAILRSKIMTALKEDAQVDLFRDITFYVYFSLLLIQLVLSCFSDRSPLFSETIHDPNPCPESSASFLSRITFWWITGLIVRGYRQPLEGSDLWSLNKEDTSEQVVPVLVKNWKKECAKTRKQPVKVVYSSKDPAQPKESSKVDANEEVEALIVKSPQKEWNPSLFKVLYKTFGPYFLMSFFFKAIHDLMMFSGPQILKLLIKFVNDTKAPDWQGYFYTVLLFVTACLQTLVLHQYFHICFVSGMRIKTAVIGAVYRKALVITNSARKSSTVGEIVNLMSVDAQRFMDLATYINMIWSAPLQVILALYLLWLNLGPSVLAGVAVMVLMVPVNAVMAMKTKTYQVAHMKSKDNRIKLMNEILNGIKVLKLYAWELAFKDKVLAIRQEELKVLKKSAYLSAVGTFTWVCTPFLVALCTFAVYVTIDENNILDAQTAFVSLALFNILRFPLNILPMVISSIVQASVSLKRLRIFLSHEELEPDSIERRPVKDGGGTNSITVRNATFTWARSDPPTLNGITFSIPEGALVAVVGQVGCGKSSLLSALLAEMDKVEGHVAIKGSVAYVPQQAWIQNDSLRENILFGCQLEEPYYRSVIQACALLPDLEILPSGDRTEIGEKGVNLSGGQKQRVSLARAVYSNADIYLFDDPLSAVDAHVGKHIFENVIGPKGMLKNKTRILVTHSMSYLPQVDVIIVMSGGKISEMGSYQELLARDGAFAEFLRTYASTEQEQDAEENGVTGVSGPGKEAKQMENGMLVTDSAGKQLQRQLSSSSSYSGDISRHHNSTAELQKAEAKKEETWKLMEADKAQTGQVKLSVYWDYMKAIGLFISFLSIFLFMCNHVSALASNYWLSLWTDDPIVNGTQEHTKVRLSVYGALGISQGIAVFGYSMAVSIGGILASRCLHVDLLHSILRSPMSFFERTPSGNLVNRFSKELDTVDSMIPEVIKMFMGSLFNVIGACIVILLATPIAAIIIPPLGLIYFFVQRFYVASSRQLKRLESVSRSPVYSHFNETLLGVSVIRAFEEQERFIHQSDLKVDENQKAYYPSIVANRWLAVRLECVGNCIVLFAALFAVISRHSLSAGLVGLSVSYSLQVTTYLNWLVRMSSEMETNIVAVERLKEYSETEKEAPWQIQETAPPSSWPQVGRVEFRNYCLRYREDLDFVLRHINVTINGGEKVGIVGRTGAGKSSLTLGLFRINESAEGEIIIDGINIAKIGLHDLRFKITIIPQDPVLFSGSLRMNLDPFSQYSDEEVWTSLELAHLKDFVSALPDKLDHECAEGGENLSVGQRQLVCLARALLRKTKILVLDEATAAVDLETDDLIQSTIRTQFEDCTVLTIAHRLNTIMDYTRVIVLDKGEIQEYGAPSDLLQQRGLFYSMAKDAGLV

CO/C(=C\c1ccc(O)cc1)C(=O)N/C=C/c1cc(Br)c(OC)c(Br)c1 [Botryllamide A, botryllamide A]
fold change in rhodamine fluorescence (P-gp-mediated transport) (P-gp): 17.6 fold | fold increase in cellular calcein fluorescence (MRP1-mediated transport) (MRP1): 4.5 fold

CO/C(=C\c1ccc(O)cc1)C(=O)N/C=C/c1ccc(OC)c(Br)c1 [Botryllamide C, botryllamide C]
fold change in rhodamine fluorescence (P-gp-mediated transport) (P-gp): 46.4 fold | activity in the screening assay (PhA) (ABCG2 [1]; result in words): inactive | activity in the mitoxantrone resistance reversal assay ([2]; 10 µM compound + 10 µM mitoxantrone, result in words): not particularly active | fold increase in cellular calcein fluorescence (MRP1-mediated transport) (MRP1): 3.7 fold | activity in the BODIPY-prazosin flow cytometry assay (ABCG2 [3]): active

CO/C(=C\c1ccc(O)cc1)C(=O)N/C=C/c1ccc(OC)c(Br)c1 [Botryllamide D, botryllamide D]
effect on P-gp (P-gp): inactive | IC50 (ABCG2 [1]): 16.4 ± 2.3 µM | cytotoxicity [4]: significant cytotoxicity

CO/C(=C\c1ccc(O)cc1)C(=O)N/C=C/c1ccc(OC)cc1 [Botryllamide E, botryllamide E]
effect on P-gp (P-gp): minimal effects; also recorded: inactive | effect on MRP1 (MRP1): minimal effects

CO/C(=C\c1ccc(O)cc1)C(=O)N/C=C/c1ccc(O)cc1 [Botryllamide F, botryllamide F]
cytotoxicity [4]: significant cytotoxicity

CO/C(=C\c1ccc(O)cc1)C(=O)N/C=C/c1cc(Br)c(O)c(Br)c1 [Botryllamide G, botryllamide G]
effect on P-gp (P-gp): minimal effects; also recorded: inactive | max activity (% FTC) (ABCG2 [1]; human): 123.7 ± 1.7 ^d % FTC | effect on MRP1 (MRP1): minimal effects

[C-]#[N+]c1c(O)cccc1/C=C(/O)C(=O)N/C=C/c1ccc(O)cc1 [Botryllamide H, botryllamide H]
activity in the screening assay (PhA) (ABCG2 [1]): inactive | activity in the BODIPY-prazosin flow cytometry assay (ABCG2 [3]): inactive

COc1ccc2c3c([nH]c2c1)[C@H](C=C(C)C)N1C(=O)[C@@H]2CCCN2C(=O)[C@@H]1C3 [FTC, fumitremorgin C, reference compound]
cells surviving in the presence of mitoxantrone ([2]; 10 µM compound + 10 µM mitoxantrone, 3 days, vs vehicle (DMSO) control): 57% | fold increase in intracellular BODIPY-prazosin fluorescence (ABCG2 [3]; ABCG2-transfected HEK293, vs absence of inhibitor): 3.4 fold | [125I]IAAP binding (incorporation into ABCG2) (ABCG2 [5]): 14 % of control

O=C1c2c(O)ccc(O)c2C(=O)c2c(NCCNCCO)ccc(NCCNCCO)c21 [mitoxantrone, reference compound]
cells surviving with mitoxantrone alone (NCI-H460 parental cells): approximately 50% | cells alive with mitoxantrone alone ([2]; 10 µM mitoxantrone, 3 days, NCI-H460 MX20, vs vehicle (DMSO)): approximately 88%

C/C=C/C[C@@H](C)C(=O)[C@H]1C(=O)N[C@@H](C(C)C)C(=O)N(C)CC(=O)N(C)[C@@H](CC(C)C)C(=O)N[C@@H](C(C)C)C(=O)N(C)[C@@H](CC(C)C)C(=O)N[C@@H](C)C(=O)N[C@H](C)C(=O)N(C)[C@@H](CC(C)C)C(=O)N(C)[C@@H](CC(C)C)C(=O)N(C)[C@@H](C(C)C)C(=O)N1C [valspodar, reference compound]
fold change in rhodamine fluorescence (P-gp-mediated transport) (P-gp): 29.7 fold

botryllamide B
IC50 (ABCG2 [1]): 11.2 ± 0.6 µM | cytotoxicity [4]: significant cytotoxicity

botryllamide I
IC50 (ABCG2 [1]): 41.4 ± 6.1 µM | stability to sunlight [6]: irreversibly converted to botryllamide E (5) by exposure to sunlight
